In US20150315554A1, “CELL LINES EXPRESSING CFTR AND METHODS OF USING THEM” (Chromocell Corporation, priority 2009, published 2015):
Where “and” joins values, the source holds several entries; their conditions need not be identical. Identical values can stand only once.

Tested on: human CFTR
Assay: high-throughput compatible fluorescence membrane potential assay, forskolin dose-response in stable CFTR-expressing CHO cell lines
Format: cell-based
Settings: stable CFTR-expressing CHO cell line, 15,000 cells/well, 384-well plate, membrane potential dye
Method: CHO cell lines stably expressing CFTR were maintained under standard cell culture conditions in Ham's F12 medium supplemented with 10% fetal bovine serum and glutamine. On the day before assay, the cells were harvested from stock plates and plated into black clear-bottom 384 well assay plates at a density that is sufficient to attain 90% confluency on the day of the assay. The assay plates were maintained in a 37° C. cell culture incubator under 5% CO2 for 22-24 hours. The media was then removed from the assay plates and blue membrane potential dye (Molecular Devices Inc.) diluted in loading buffer (137 mM NaCl, 5 mM KCl, 1.25 mM CaCl2, 25 mM HEPES, 10 mM glucose) was added and allowed to incubate for 1 hour at 37° C. The assay plates were then loaded on a fluorescent plate reader (Hamamatsu FDSS) and a cocktail of forskolin and IBMX dissolved in compound buffer (137 mM sodium gluconate, 5 mM potassium gluconate, 1.25 mM CaCl2, 25 mM HEPES, 10 mM glucose) was added. For forskolin dose-response experiments, cells of the produced stable CFTR-expressing cell lines, plated at a density of 15,000 cells/well in a 384-well plate were challenged with increasing concentration of forskolin, a known CFTR agonist. The cellular response as a function of changes in cell fluorescence was monitored over time by a fluorescent plate reader (Hamamatsu FDSS).

Q: With C=C[C@@]1(C)CC(=O)[C@]2(O)[C@@]3(C)[C@@H](O)CCC(C)(C)[C@@H]3[C@H](O)[C@H](OC(C)=O)[C@@]2(C)O1 [forskolin] as the compound, how does the EC50 read?
A: 256 nM and ~250 nM
